According to patent US6420163B1, “Pharmacological targeting of mRNA cap formation” (priority 1998, dated 2002):

Assays:
[1] = molecular target: T1, Mce1(1-210)p RNA triphosphatase domain (Mus musculus, UniProt O55236); details: 0.5 mM divalent cation; cited from earlier work
T1 construct: The N-terminal portion of Mce1p from residues 1-210 is an autonomous RNA triphosphatase domain; made in house; host or cells: bacteria
T1 sequence (O55236 1-210): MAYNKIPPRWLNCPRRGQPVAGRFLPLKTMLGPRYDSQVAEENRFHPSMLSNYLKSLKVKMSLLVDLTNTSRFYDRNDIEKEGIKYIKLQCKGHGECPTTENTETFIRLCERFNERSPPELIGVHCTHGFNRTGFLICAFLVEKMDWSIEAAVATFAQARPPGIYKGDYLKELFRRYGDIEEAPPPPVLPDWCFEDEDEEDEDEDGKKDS

[2] = molecular target: T2, human cap methyltransferase (Hcm1p) (Homo sapiens, UniProt O43148); format: biochemical
T2 construct: His-tag (pET16b leader) (N); made in house; host or cells: Escherichia coli BL21(DE3)
T2 sequence (O43148 whole entry): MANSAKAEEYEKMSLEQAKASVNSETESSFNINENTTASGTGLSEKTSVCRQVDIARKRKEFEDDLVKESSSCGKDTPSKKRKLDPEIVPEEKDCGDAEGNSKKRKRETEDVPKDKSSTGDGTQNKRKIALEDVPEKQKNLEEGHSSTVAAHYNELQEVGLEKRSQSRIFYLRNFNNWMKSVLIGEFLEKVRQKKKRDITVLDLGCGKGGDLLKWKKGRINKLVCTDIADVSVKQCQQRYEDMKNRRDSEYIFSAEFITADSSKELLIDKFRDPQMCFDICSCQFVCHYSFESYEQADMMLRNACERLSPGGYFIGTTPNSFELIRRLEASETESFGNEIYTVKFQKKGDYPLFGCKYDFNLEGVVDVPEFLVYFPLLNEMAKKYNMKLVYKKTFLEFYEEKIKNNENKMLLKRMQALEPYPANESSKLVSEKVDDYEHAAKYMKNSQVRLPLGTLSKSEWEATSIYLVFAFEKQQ

[3] = molecular target: T3, yeast RNA triphosphatase Cet1p (Saccharomyces cerevisiae, UniProt O13297); test: Manganese-dependent ATP hydrolysis by Cet1p; format: biochemical; details: full-length Cet1p, 2 mM MnCl2, pH 7.0, 30° C.
T3 construct: His-tag; made in house; host or cells: Escherichia coli BL21(DE3)
T3 sequence (O13297 1-549): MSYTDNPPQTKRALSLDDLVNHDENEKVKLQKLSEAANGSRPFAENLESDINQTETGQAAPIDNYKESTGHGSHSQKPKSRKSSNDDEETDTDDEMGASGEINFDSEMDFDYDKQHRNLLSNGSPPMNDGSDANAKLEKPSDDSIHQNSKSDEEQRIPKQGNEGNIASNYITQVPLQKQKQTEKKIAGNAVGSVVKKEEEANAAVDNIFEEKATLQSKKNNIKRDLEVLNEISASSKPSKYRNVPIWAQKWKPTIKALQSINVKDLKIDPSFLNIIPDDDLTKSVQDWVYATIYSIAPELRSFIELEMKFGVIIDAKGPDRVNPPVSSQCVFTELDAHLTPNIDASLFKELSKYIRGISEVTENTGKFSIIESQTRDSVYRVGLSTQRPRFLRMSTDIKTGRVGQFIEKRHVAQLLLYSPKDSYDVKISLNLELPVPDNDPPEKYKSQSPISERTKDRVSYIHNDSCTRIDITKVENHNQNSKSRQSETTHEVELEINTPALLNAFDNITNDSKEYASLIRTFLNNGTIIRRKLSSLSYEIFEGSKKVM
Method: (§1) (FIG. 8A) Protein titration. Reaction mixtures (10 μl) containing 50 mM Tris HCl (pH 7.0), 5 mM DTT, 2 mM MnCl2, 1 mM [γ^32P]ATP, and either Cet1p, Cet1(201-549)p, or Cet1(246-549)p were incubated for 15 min at 30° C. Pi release is plotted as a function of input protein. (FIG. 8B) Kinetics. Reaction mixtures (100 μl) containing 50 mM Tris HCl (pH 7.0), 5 mM DTT, 2 mM MnCl2, 1 mM [γ^32P]ATP, and either 8, 16, or 32 nM Cet1p were incubated at 30° C. Aliquots (10 μl) were withdrawn at the times indicated and quenched immediately by the addition of […] of 5 M formic acid. Pi release is plotted as a function of time. (FIG. 8C) Hydrolysis of [α^32P]ATP. […] The products were analyzed by TLC. […] An otherwise identical reaction containing 1 mM [γ^32P]ATP was analyzed in parallel; Pi release (●). […]
(§2) The extent of ^32Pi relase from [Υ^32P]ATP during a 15 min reaction was proportional to the amount of input Cetlp protein (FIG. 8A). ^32Pi accumulated with time over 30 min; the rate of reaction varied linearly with Cetlp concentration (FIG. 8B). From a plot of initial rate versus enzyme concentration, a turnover number of 25 s^−1 was calculated. Cetlp catalyzed the quantitative conversion of [α^32P]ATP to [α^32P]ADP. […] No formation of [α^32P]AMP from [α^32P]ATP was detected, even after 20-45 min of incubation, by which time all of the nucleotide had been converted to ADP. […]

[4] = molecular target: T4, yeast RNA triphosphatase Cet1p (Saccharomyces cerevisiae, UniProt O13297); test: Manganese-dependent ATP hydrolysis by Cet1p; format: biochemical; details: truncated Cet1(201-549)p
T4 construct: His-tag; made in house; host or cells: Escherichia coli BL21(DE3)
Method: as §1, §2

LEF-4 = LEF-4 (Autographa californica nuclear polyhedrosis virus, UniProt P41477); details: read-out: Km for ATP; cited from earlier work
Chain of LEF-4 (P41477 whole entry): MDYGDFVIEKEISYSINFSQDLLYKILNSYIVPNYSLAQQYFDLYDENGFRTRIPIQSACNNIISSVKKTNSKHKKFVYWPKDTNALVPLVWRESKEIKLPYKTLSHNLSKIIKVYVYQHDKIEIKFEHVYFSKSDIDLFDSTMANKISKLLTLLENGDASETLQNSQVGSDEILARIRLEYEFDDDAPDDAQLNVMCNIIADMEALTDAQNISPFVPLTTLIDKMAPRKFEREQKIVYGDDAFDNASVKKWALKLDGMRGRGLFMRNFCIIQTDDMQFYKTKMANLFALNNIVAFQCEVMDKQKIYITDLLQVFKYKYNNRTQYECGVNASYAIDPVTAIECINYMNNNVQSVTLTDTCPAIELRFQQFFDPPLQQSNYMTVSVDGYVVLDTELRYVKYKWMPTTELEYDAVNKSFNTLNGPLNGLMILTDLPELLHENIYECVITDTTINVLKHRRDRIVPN

vaccinia triphosphatase = vaccinia triphosphatase (Vaccinia virus, UniProt P04298); details: read-out: Km for ATP; cited from earlier work

## [Cl][Mn][Cl] [MnCl2]
[1]
  inhibition of RNA triphosphatase activity: 75%

## Nc1ncnc2c1ncn2[C@@H]1O[C@H](CSCC[C@H](N)C(=O)O)[C@@H](O)[C@H]1O [AdoHcy, S-adenosylhomocysteine]
[2]; 50 μM AdoMet plus 500 μM AdoHcy
  effect on cap methylation (FIG. 9, lane 4): partially inhibitory
[2]; 100 μM AdoHcy in the presence of 10 μM AdoMet
  reduction of cap methylation: 80%

## C[S+](CC[C@H](N)C(=O)[O-])C[C@H]1O[C@@H](n2cnc3c(N)ncnc32)[C@H](O)[C@@H]1O (stereo partly shown) [AdoMet, S-adenosylmethionine]
[2]; peak glycerol gradient fraction of Hcm1p
  AdoMet concentration giving half-maximal activity: ~25 µM

## [Cl-].[Cl-].[Mg+2] [MgCl2]
[2]; 1 mM magnesium
  effect of magnesium on cap methylation: reduced by an order of magnitude
[1]
  inhibition of RNA triphosphatase activity: 75%

## Nc1ncnc2c1ncn2[C@@H]1O[C@H](COP(=O)(O)OP(=O)(O)OP(=O)(O)O)[C@@H](O)[C@H]1O [ATP]
[3]
  Km: 2.8 µM
[4]
  Km: 3.3 µM
LEF-4
  Km: 43 µM
Vaccinia triphosphatase
  Km: 800 µM
